# Laboratory results published in patent publication US20170166555A1, “FUNCTIONALISED AND SUBSTITUTED INDOLES AS ANTI-CANCER AGENTS” (Novogen Limited, priority 2013, published 2017).
# Read-outs that look alike come from different tables or passages of the source.
# What was measured:
# Assay in all cases: Anti-proliferative assay, cell-titre luminescent reagent, 72 h (GVK-BIO)
# Type in all cases: cell-based
# [1] = test system: DU145 prostate cancer cells; details: Homo sapiens
# Summary of the method: (§1)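 Luminescent cell-titre viability was read 30 min after reagent addition, following 72 h compound exposure of cells pre-cultured 24 h at 37 °C, 5% CO2. Dose sets were 30–0.03 μM (4 points) or 30–0.1 μM (6 points), giving IC50 by linear regression or EC50 by nonlinear variable-slope fit vs vehicle.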
# [2] = test system: MDA-MB-231 triple negative breast cancer cells; details: Homo sapiens
# Summary of the method: as §1
# [3] = test system: PC3 prostate cancer cells
# Summary of the method: as §1
# [4] = test system: CaCo2 colorectal cancer cells; details: Homo sapiens
# Summary of the method: as §1
# [5] = test system: A549 non-small cell lung carcinoma cells; details: Homo sapiens, read-out: IC50/μM Lung (NSLC) A549
# Summary of the method: as §1
# [6] = test system: SK-N-SH neuroblastoma cells; details: Homo sapiens
# Summary of the method: as §1
# SK-Mel-28 melanoma cells = details: Homo sapiens
# Summary of the method: as §1
# [7] = DU-145, 72 h, 30, 3, 0.3 and 0.03 μM, linear regression (Tables 2-4)
# [8] = MDA-MB-231, 72 h, 30, 3, 0.3 and 0.03 μM, linear regression (Tables 2-4)
# [9] = 30, 3, 0.3 and 0.03 μM, linear regression (Tables 2-4)
# [10] = Caco-2, 72 h, 30, 3, 0.3 and 0.03 μM, linear regression (Tables 2-4)
# [11] = A549, 72 h, 30, 3, 0.3 and 0.03 μM, linear regression (Tables 2-4)
# [12] = SK-N-SH, 30, 3, 0.3 and 0.03 μM, linear regression (Tables 2-4)
# [13] = SK-MEL-28, 72 h, 30, 3, 0.3 and 0.03 μM, linear regression (Tables 2-4)
# [14] = DU-145, 72 h, 30, 10, 3, 1, 0.3 and 0.1 μM, nonlinear regression (Table 5)
# [15] = MDA-MB-231, 72 h, 30, 10, 3, 1, 0.3 and 0.1 μM, nonlinear regression (Table 5)
# [16] = 30, 10, 3, 1, 0.3 and 0.1 μM, nonlinear regression (Table 5)
# [17] = Caco-2, 72 h, 30, 10, 3, 1, 0.3 and 0.1 μM, nonlinear regression (Table 5)
# [18] = A549, 72 h, 30, 10, 3, 1, 0.3 and 0.1 μM, nonlinear regression (Table 5)
# [19] = SK-N-SH, 30, 10, 3, 1, 0.3 and 0.1 μM, nonlinear regression (Table 5)
# [20] = SK-MEL-28, 72 h, 30, 10, 3, 1, 0.3 and 0.1 μM, nonlinear regression (Table 5)
SMILES,"IC50 [1, 7] [µM]","IC50 [2, 8] [µM]","IC50 [3, 9] [µM]","IC50 [4, 10] [µM]","IC50 [5, 11] [µM]","IC50 [6, 12] [µM]",IC50 (SK-Mel-28 melanoma cells; [13]) [µM],"IC50 [1, 14] [µM]","IC50 [2, 15] [µM]","IC50 [3, 16] [µM]","IC50 [4, 17] [µM]","IC50 [5, 18] [µM]","IC50 [6, 19] [µM]",IC50 (SK-Mel-28 melanoma cells; [20]) [µM]
"COc1cccc(NC(=O)c2ccc(Nc3ccc4c(ccn4CCCN(C)C)c3)cc2)c1 [Compound 4103, 4-((1-(3-(dimethylamino)propyl)-1H-indol-5-yl)amino)-N-(3-methoxyphenyl)benzamide]",3.7,2.7,5.4,5,3,2.9,5.4,,,,,,,
"Cc1c(C)n(CCCN(C)C)c2ccc(Nc3ccc(C(=O)Nc4ccc(F)cc4)cc3)cc12 [Compound 4104, 4-((1-(3-(dimethylamino)propyl)-2,3-dimethyl-1H-indol-5-yl)amino)-N-(4-fluorophenyl)benzamide]",4.1,4.2,4.1,3.2,4,3.4,3.6,,,,,,,
"COc1ccc(NC(=O)c2ccc(Nc3ccc4c(c3)c(C)c(C)n4CCCN(C)C)cc2)cc1 [Compound 4105, 4-((1-(3-(dimethylamino)propyl)-2,3-dimethyl-1H-indol-5-yl)amino)-N-(4-methoxyphenyl)benzamide]",3.6,2.7,3.7,2.6,3.6,3.4,2.6,,,,,,,
"Cc1c(C)n(CCCN(C)C)c2ccc(Nc3ccc(C(=O)Nc4ccc5c(c4)OCO5)cc3)cc12 [Compound 4106, N-(benzo[d][1,3]dioxol-5-yl)-4-((1-(3-(dimethylamino)propyl)-2,3-dimethyl-1H-indol-5-yl)amino)benzamide]",3.1,1.9,3.6,2.8,2.4,1.8,2.6,,,,,,,
"Cc1c(C)n(CCCN(C)C)c2ccc(Nc3ccc(C(=O)Nc4cccc(F)c4)cc3)cc12 [Compound 4107, 4-((1-(3-(dimethylamino)propyl)-2,3-dimethyl-1H-indol-5-yl)amino)-N-(3-fluorophenyl)benzamide]",3.5,2.8,3.5,3.6,2.9,3.6,2.8,,,,,,,
"COc1cccc(NC(=O)c2ccc(Nc3ccc4c(c3)c(C)c(C)n4CCCN(C)C)cc2)c1 [Compound 4108, 4-((1-(3-(dimethylamino)propyl)-2,3-dimethyl-1H-indol-5-yl)amino)-N-(3-methoxyphenyl)benzamide]",3.5,2.2,3.6,2.1,3.4,2.9,2.9,,,,,,,
"Cc1c(C)n(CCCN(C)C)c2ccc(CN3CCN(CCc4ccc(F)cc4)CC3)cc12 [Compound 4109, 3-(5-((4-(4-fluorophenethyl)piperazin-1-yl)methyl)-2,3-dimethyl-1H-indol-1-yl)-N,N-dimethylpropan-1-amine]",,,,,,,,5.3,3.6,9.5,9.1,6.5,3.7,1
"Cc1c(C)n(CCCN2CCN(C)CC2)c2ccc(CN3CCN(CCc4ccc(F)cc4)CC3)cc12 [Compound 4110, 5-((4-(4-fluorophenethyl)piperazin-1-yl)methyl)-2,3-dimethyl-1-(3-(4-methylpiperazin-1-yl)propyl)-1H-indole]",,,,,,,,22.7,6.9,17.7,12.9,33.2,4.2,4.4
"COc1ccc(CCN2CCN(Cc3ccc4c(c3)c(C)c(C)n4CCCN3CCN(C)CC3)CC2)cc1 [Compound 4111, 5-((4-(4-methoxyphenethyl)piperazin-1-yl)methyl)-2,3-dimethyl-1-(3-(4-methylpiperazin-1-yl)propyl)-1H-indole]",,,,,,,,11.3,3.9,7.5,7.9,5.5,3.4,2.4
"Cc1c(C)n(CCCN2CCN(C)CC2)c2ccc(CN3CCN(CCc4ccc(O)cc4)CC3)cc12 [Compound 4112, 4-(2-(4-((2,3-dimethyl-1-(3-(4-methylpiperazin-1-yl)propyl)-1H-indol-5-yl)methyl)piperazin-1-yl)ethyl)phenol]",,,,,,,,8.3,11.8,8.4,17.5,5.9,7,13
"COc1cccc(CCN2CCN(Cc3ccc4c(c3)c(C)c(C)n4CCCN3CCN(C)CC3)CC2)c1 [Compound 4115, 5-((4-(3-methoxyphenethyl)piperazin-1-yl)methyl)-2,3-dimethyl-1-(3-(4-methylpiperazin-1-yl)propyl)-1H-indole]",,,,,,,,6.1,3.4,9.4,6.2,8.8,4.9,1.1
"Cc1c(C)n(CCCN2CCN(C)CC2)c2ccc(CN3CCN(CCc4cccc(O)c4)CC3)cc12 [Compound 4116, 3-(2-(4-((2,3-dimethyl-1-(3-(4-methylpiperazin-1-yl)propyl)-1H-indol-5-yl)methyl)piperazin-1-yl)ethyl)phenol]",,,,,,,,7.6,4.1,13.2,6,10.1,4.6,3.2
"Cc1c(C)n(CCCN2CCN(C)CC2)c2ccc(CN3CCN(CCc4ccccc4)CC3)cc12 [Compound 4117, 2,3-dimethyl-1-(3-(4-methylpiperazin-1-yl)propyl)-5-((4-phenethylpiperazin-1-yl)methyl)-1H-indole]",,,,,,,,5.6,3.5,10.2,8.2,8.6,4.6,2
"Cc1c(C)n(CCCN(C)C)c2ccc(C(=O)N3CCN(CCc4ccc(F)cc4)CC3)cc12 [Compound 4118, (1-(3-(dimethylamino)propyl)-2,3-dimethyl-1H-indol-5-yl)(4-(4-fluorophenethyl)piperazin-1-yl)methanone]",> 30,> 30,> 30,> 30,> 30,31.9,18.1,,,,,,,
"Cc1c(C)n(CCCN(C)C)c2ccc(C(=O)N3CCN(CCc4ccc(O)cc4)CC3)cc12 [Compound 4119, (1-(3-(dimethylamino)propyl)-2,3-dimethyl-1H-indol-5-yl)(4-(4-hydroxyphenethyl)piperazin-1-yl)methanone]",,,,,,,,> 30,> 30,> 30,> 30,> 30,> 30,> 30
"Cc1c(C)n(CCCN2CCN(C)CC2)c2ccc(C(=O)N3CCN(CCc4ccc(F)cc4)CC3)cc12 [Compound 4120, (2,3-dimethyl-1-(3-(4-methylpiperazin-1-yl)propyl)-1H-indol-5-yl)(4-(4-fluorophenethyl)piperazin-1-yl)methanone]",> 30,> 30,> 30,> 30,23,13.8,17.7,,,,,,,
"COc1ccc(CCN2CCN(C(=O)c3ccc4c(c3)c(C)c(C)n4CCCN3CCN(C)CC3)CC2)cc1 [Compound 4121, (2,3-dimethyl-1-(3-(4-methylpiperazin-1-yl)propyl)-1H-indol-5-yl)(4-(4-methoxyphenethyl)piperazin-1-yl)methanone]",> 30,13.2,> 30,> 30,15.7,13.6,14.7,,,,,,,
"Cc1c(C)n(CCCN2CCN(C)CC2)c2ccc(C(=O)N3CCN(CCc4ccc(O)cc4)CC3)cc12 [Compound 4122, (2,3-dimethyl-1-(3-(4-methylpiperazin-1-yl)propyl)-1H-indol-5-yl)(4-(4-hydroxyphenethyl)piperazin-1-yl)methanone]",,,,,,,,> 30,> 30,> 30,> 30,> 30,> 30,> 30
"Cc1c(C)n(CCCN2CCN(C)CC2)c2ccc(C(=O)N3CCN(CCc4ccc5c(c4)OCO5)CC3)cc12 [Compound 4123, (4-(2-(benzo[d][1,3]dioxol-5-yl)ethyl)piperazin-1-yl)(2,3-dimethyl-1-(3-(4-methylpiperazin-1-yl)propyl)-1H-indol-5-yl)methanone]",> 30,16.3,> 30,> 30,15.6,12.3,16.8,,,,,,,
